Columns and labels:
giant foxtail = assay: Test B pre/postemergence giant foxtail; format: in vivo, Setaria faberii
Procedure, shortened: (§1)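 Response is a visual 0-to-10 score relative to untreated plants, where 0 means no effect and 10 means complete control, taken twelve to sixteen days after application. Treatments went onto soil at planting and onto foliage of 1- to 4-leaf plants, using a surfactant-containing non-phytotoxic solvent.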

morningglory = assay: Test B pre/postemergence morningglory; format: in vivo, Ipomoea hederacea
Procedure, shortened: as §1

pigweed = assay: Test B pre/postemergence pigweed; format: in vivo, Amaranthus retroflexus
Procedure, shortened: as §1

rape = assay: Test B pre/postemergence rape; format: in vivo, Brassica napus
Procedure, shortened: as §1

winter wheat [1] = assay: Test E winter wheat; format: in vivo, Triticum aestivum; settings: Postemergence; for Plant response rating, Wheat (winter): 0 to 100 scale
Procedure, shortened: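 Plants were grown under normal greenhouse practice; for postemergence, in sandy loam soil mixed 60:40 with potting mix, treated at the 1- to 4-leaf stage. The compound was in a non-phytotoxic solvent carrying a surfactant. After roughly 21 to 28 days plants were scored visually against untreated plants.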

blackgrass = assay: Test E blackgrass; format: in vivo, Alopecurus myosuroides; settings: Preemergence
green foxtail = assay: Test E green foxtail; format: in vivo, Setaria viridis; settings: Preemergence
Italian ryegrass = assay: Test E Italian ryegrass; format: in vivo, Lolium multiflorum; settings: Preemergence
winter wheat [2] = assay: Test E winter wheat; format: in vivo, Triticum aestivum; settings: Preemergence
wild oat = assay: Test E wild oat; format: in vivo, Avena fatua; settings: Preemergence
winter barley = assay: Test E winter barley; format: in vivo, Hordeum vulgare; settings: Preemergence
[3] = Postemergence, Rate 125 g/ha, scale 0 to 10, 0 is no effect, 10 is complete control
[4] = Postemergence, Rate 250 g/ha, scale 0 to 10, 0 is no effect, 10 is complete control
[5] = Preemergence, Rate 62 g/ha, scale 0 to 10 (0 no effect, 10 complete control)
[6] = Preemergence, Rate 250 g/ha, scale of 0 to 10 where 0 is no effect and 10 is complete control
[7] = Preemergence, Rate 500 g/ha, scale of 0 to 10 where 0 is no effect and 10 is complete control
[8] = Rate 62 g/ha, Postemergence, scale of 0 to 10 where 0 is no effect and 10 is complete control
[9] = Rate 500 g/ha, Postemergence, scale 0 to 10, 0 no effect, 10 complete control
[10] = Rate 125 g/ha, 0 is no effect, 100 is complete control
[11] = Rate 500 g/ha, 0 is no effect, 100 is complete control
[12] = Rate 125 g/ha, 0 to 100 scale (0 no effect, 100 complete control)
[13] = Rate 500 g/ha, 0 to 100 scale (0 no effect, 100 complete control)
[14] = Preemergence, Rate 62 g/ha, scale of 0 to 10 where 0 is no effect and 10 is complete control
[15] = Rate 125 g/ha, Preemergence, scale of 0 to 10 where 0 is no effect and 10 is complete control
[16] = Rate 31 g/ha, 0 to 100 scale, 0 no effect, 100 complete control
[17] = Rate 62 g/ha, 0 to 100 scale, 0 no effect, 100 complete control
[18] = Rate 125 g/ha, Postemergence, scale of 0 to 10 where 0 is no effect and 10 is complete control
[19] = Rate 250 g/ha, Postemergence, scale of 0 to 10 where 0 is no effect and 10 is complete control
[20] = Rate 500 g/ha, 0 to 100 scale where 0 is no effect and 100 is complete control

## CC1CC1n1c(=O)on(C(=O)N(c2ccc(F)cc2F)C(C)C)c1=O (centres unmarked) [Compound 372]
Giant foxtail; [3]
  Plant response rating, Giant foxtail: 9
Giant foxtail; [4]
  Plant response rating, Giant foxtail: 9
Giant foxtail; [5]
  Plant response rating, Giant foxtail: 10
Giant foxtail; Preemergence, Rate 125 g/ha
  Giant foxtail plant response rating (0 to 10 scale): 10
Giant foxtail; [6]
  Giant foxtail plant response rating: 10
Giant foxtail; [7]
  Giant foxtail plant response rating: 10
Giant foxtail; [8]
  Giant foxtail plant response rating: 4
Giant foxtail; [9]
  Plant response rating, Giant foxtail: 9
morningglory; [3]
  Plant response rating, Morningglory: 7
morningglory; [4]
  Plant response rating, Morningglory: 7
morningglory; [5]
  Plant response rating, Morningglory: 0
morningglory; Preemergence, Rate 125 g/ha
  Morningglory plant response rating (0 to 10 scale): 0
morningglory; [6]
  Morningglory plant response rating: 2
morningglory; [7]
  Morningglory plant response rating: 3
morningglory; [8]
  Morningglory plant response rating: 5
morningglory; [9]
  Plant response rating, Morningglory: 10
pigweed; [3]
  Plant response rating, Redroot pigweed: 3
pigweed; [4]
  Plant response rating, Redroot pigweed: 6
pigweed; [5]
  Plant response rating, Redroot pigweed: 6
pigweed; Preemergence, Rate 125 g/ha
  Redroot pigweed plant response rating (0 to 10 scale): 10
pigweed; [6]
  Redroot pigweed plant response rating: 10
pigweed; [7]
  Redroot pigweed plant response rating: 10
pigweed; [8]
  Redroot pigweed plant response rating: 2
pigweed; [9]
  Plant response rating, Redroot pigweed: 9
rape; [4]
  Plant response rating, Rape: 3
rape; [5]
  Plant response rating, Rape: 5
rape; Preemergence, Rate 125 g/ha
  Rape plant response rating (0 to 10 scale): 5
rape; [6]
  Rape plant response rating: 10
rape; [7]
  Rape plant response rating: 10
rape; [8]
  Rape plant response rating: 2
rape; [9]
  Plant response rating, Rape: 5
Winter wheat [1]; [10]
  Plant response rating, Wheat (winter): 65
Winter wheat [1]; Rate 250 g/ha, 0 is no effect, 100 is complete control
  Plant response rating, Wheat (winter): 70
Winter wheat [1]; [11]
  Plant response rating, Wheat (winter): 80
blackgrass; [12]
  Plant response rating, Blackgrass: 70
blackgrass; Rate 250 g/ha, 0 to 100 scale
  Plant response rating, Blackgrass: 60
blackgrass; [13]
  Plant response rating, Blackgrass: 100
Green foxtail; [12]
  Plant response rating, Green foxtail: 60
Green foxtail; Rate 250 g/ha, 0 to 100 scale
  Plant response rating, Green foxtail: 60
Green foxtail; [13]
  Plant response rating, Green foxtail: 100
Italian ryegrass; [12]
  Plant response rating, I. Ryegrass: 60
Italian ryegrass; Rate 250 g/ha, 0 to 100 scale
  Plant response rating, I. Ryegrass: 70
Italian ryegrass; [13]
  Plant response rating, I. Ryegrass: 85
Winter wheat [2]; [12]
  Plant response rating, Wheat (winter): 60
Winter wheat [2]; Rate 250 g/ha, 0 to 100 scale
  Plant response rating, Wheat (winter): 50
Winter wheat [2]; [13]
  Plant response rating, Wheat (winter): 70
Wild oat; [12]
  Plant response rating, Wild oat: 50
Wild oat; Rate 250 g/ha, 0 to 100 scale
  Plant response rating, Wild oat: 60
Wild oat; [13]
  Plant response rating, Wild oat: 80
Winter barley; [12]
  Plant response rating, Barley (winter): 60
Winter barley; Rate 250 g/ha, 0 to 100 scale, 0 no effect, 100 complete control
  Plant response rating, Barley (winter): 70
Winter barley; [13]
  Plant response rating, Barley (winter): 70

## [2H]C([2H])([2H])n1c(=O)on(C(=O)N(c2ccc(F)cc2)C(C)C)c1=O [Compound 245]
Giant foxtail; [14]
  Giant foxtail plant response rating: 9
Giant foxtail; [6]
  Giant foxtail plant response rating: 10
Giant foxtail; [7]
  Plant response rating, Giant foxtail: 10
Giant foxtail; [8]
  Giant foxtail plant response rating: 5
Giant foxtail; [15]
  Giant foxtail plant response rating: 9
Giant foxtail; Rate 250 g/ha, Postemergence
  Plant response rating (0 to 10; 0 is no effect, 10 is complete control), Giant foxtail: 8
Giant foxtail; [9]
  Giant foxtail plant response rating: 8
morningglory; [14]
  Morningglory plant response rating: 0
morningglory; [6]
  Morningglory plant response rating: 6
morningglory; [7]
  Plant response rating, Morningglory: 6
morningglory; [8]
  Morningglory plant response rating: 5
morningglory; [15]
  Morningglory plant response rating: 1
morningglory; Rate 250 g/ha, Postemergence
  Plant response rating (0 to 10; 0 is no effect, 10 is complete control), Morningglory: 9
morningglory; [9]
  Morningglory plant response rating: 9
pigweed; [14]
  Redroot pigweed plant response rating: 8
pigweed; [6]
  Redroot pigweed plant response rating: 10
pigweed; [7]
  Plant response rating, Redroot pigweed: 10
pigweed; [8]
  Redroot pigweed plant response rating: 3
pigweed; [15]
  Redroot pigweed plant response rating: 10
pigweed; Rate 250 g/ha, Postemergence
  Plant response rating (0 to 10; 0 is no effect, 10 is complete control), Redroot pigweed: 9
pigweed; [9]
  Redroot pigweed plant response rating: 9
rape; [14]
  Rape plant response rating: 3
rape; [6]
  Rape plant response rating: 10
rape; [7]
  Plant response rating, Rape: 10
rape; [8]
  Rape plant response rating: 0
rape; [15]
  Rape plant response rating: 4
rape; Rate 250 g/ha, Postemergence
  Plant response rating (0 to 10; 0 is no effect, 10 is complete control), Rape: 2
rape; [9]
  Rape plant response rating: 5
Winter wheat [1]; Rate 31 g/ha, 0 no effect, 100 complete control
  Plant response rating, Wheat (winter): 0
Winter wheat [1]; Rate 62 g/ha
  Plant response rating, Wheat (winter): 10
Winter wheat [1]; [10]
  Plant response rating, Wheat (winter): 0
blackgrass; [16]
  Plant response rating, Blackgrass: 60
blackgrass; [17]
  Plant response rating, Blackgrass: 60
blackgrass; [12]
  Plant response rating, Blackgrass: 50
Green foxtail; [16]
  Plant response rating, Green foxtail: 60
Green foxtail; [17]
  Plant response rating, Green foxtail: 100
Green foxtail; [12]
  Plant response rating, Green foxtail: 100
Italian ryegrass; [16]
  Plant response rating, I. Ryegrass: 20
Italian ryegrass; [17]
  Plant response rating, I. Ryegrass: 40
Italian ryegrass; [12]
  Plant response rating, I. Ryegrass: 60
Winter wheat [2]; [16]
  Plant response rating, Wheat (winter): 20
Winter wheat [2]; [17]
  Plant response rating, Wheat (winter): 20
Winter wheat [2]; [12]
  Plant response rating, Wheat (winter): 50
Wild oat; [16]
  Plant response rating, Wild oat: 30
Wild oat; [17]
  Plant response rating, Wild oat: 40
Wild oat; [12]
  Plant response rating, Wild oat: 30
Winter barley; [16]
  Plant response rating, Barley (winter): 40
Winter barley; [17]
  Plant response rating, Barley (winter): 50
Winter barley; [12]
  Plant response rating, Barley (winter): 70

## CC(C)N(C(=O)n1oc(=O)n(Cc2ccccn2)c1=O)c1ccc(F)cc1 [Compound 267]
Giant foxtail; [14]
  Giant foxtail plant response rating: 8
Giant foxtail; [6]
  Giant foxtail plant response rating: 9
Giant foxtail; [7]
  Plant response rating, Giant foxtail: 9
Giant foxtail; [18]
  Giant foxtail plant response rating: 0
Giant foxtail; [15]
  Giant foxtail plant response rating: 8
Giant foxtail; [19]
  Plant response rating, Giant foxtail: 2
Giant foxtail; [9]
  Giant foxtail plant response rating: 7
morningglory; [14]
  Morningglory plant response rating: 0
morningglory; [6]
  Morningglory plant response rating: 0
morningglory; [7]
  Plant response rating, Morningglory: 0
morningglory; [18]
  Morningglory plant response rating: 1
morningglory; [15]
  Morningglory plant response rating: 0
morningglory; [19]
  Plant response rating, Morningglory: 3
morningglory; [9]
  Morningglory plant response rating: 8
pigweed; [14]
  Redroot pigweed plant response rating: 0
pigweed; [6]
  Redroot pigweed plant response rating: 6
pigweed; [7]
  Plant response rating, Redroot pigweed: 7
pigweed; [18]
  Redroot pigweed plant response rating: 0
pigweed; [15]
  Redroot pigweed plant response rating: 3
pigweed; [19]
  Plant response rating, Redroot pigweed: 0
pigweed; [9]
  Redroot pigweed plant response rating: 6
rape; [14]
  Rape plant response rating: 0
rape; [6]
  Rape plant response rating: 0
rape; [7]
  Plant response rating, Rape: 0
rape; [18]
  Rape plant response rating: 0
rape; [15]
  Rape plant response rating: 0
rape; [19]
  Plant response rating, Rape: 0
rape; [9]
  Rape plant response rating: 2
Winter wheat [1]; Rate 250 g/ha, 0 to 100 scale where 0 is no effect and 100 is complete control
  Wheat (winter) plant response rating: 70
Winter wheat [1]; [11]
  Plant response rating, Wheat (winter): 70
blackgrass; Rate 250 g/ha
  Blackgrass plant response rating (0 to 100 scale): 50
blackgrass; [20]
  Plant response rating, Blackgrass: 60
Green foxtail; Rate 250 g/ha
  Green foxtail plant response rating (0 to 100 scale): 100
Green foxtail; [20]
  Plant response rating, Green foxtail: 100
Italian ryegrass; Rate 250 g/ha
  I. Ryegrass plant response rating (0 to 100 scale): 50
Italian ryegrass; [20]
  Plant response rating, I. Ryegrass: 50
Winter wheat [2]; Rate 250 g/ha
  Wheat (winter) plant response rating (0 to 100 scale): 55
Winter wheat [2]; [20]
  Plant response rating, Wheat (winter): 70
Wild oat; Rate 250 g/ha
  Wild oat plant response rating (0 to 100 scale): 55
Wild oat; [20]
  Plant response rating, Wild oat: 70
Winter barley; Rate 250 g/ha
  Barley (winter) plant response rating (0 to 100 scale): 30
Winter barley; [20]
  Plant response rating, Barley (winter): 70
